This is an account of results in paper PMC12323621, “Exploring the antimicrobial activity of pantothenamides against uropathogenic Escherichia coli” (Microbiology Spectrum, 2025).

Read-outs that look alike come from different tables or passages of the source. A value given as a limit tells only on which side of the number the result lay.

Series [1] relates to UPEC strain CFT073. The series can be described thus: Antimicrobial susceptibility assay, UPEC grown in pooled human urine. The class given is cell-based, Escherichia coli. The text has this: Unless otherwise noted, all reagents were obtained from commercial sources. BAP, 1, and N5-Pan analogs were synthesized according to previously reported procedures ([31], [53]). Urine was self-collected from adult males and females (not menstruating) between 24 and 57 years old (recruitment was open to donors 18–65 years old), who had not used anti-infectives or cranberry products for at least 7 days prior to collection. The collection protocol was approved by the Johns Hopkins University Institutional Review Boards under IRB study NA_00085130. Informed, written consent was obtained from all participants prior to collection. Urine was collected from at least 7 participants over 14 days, stored at 4°C upon collection, and then pooled, filter-sterilized, and frozen at −20°C. Urine Batch A included five male and three female donors with an average age of 33 years (range: 24–57). Urine Batch B included four male and five female donors with an average age of 26 years (range: 24–43). Samples from two donors (donations made at least 30 days apart) were included in both Batch A and Batch B. Urine Batch C included four male and three female donors with an average age of 27 years (range: 24–36). Urine Batch D included four male and three female donors with an average age of 27 years (range: 25–35). Solid urine agar plates were prepared by supplementing cooled 1.5% (wt/vol) agar with filter-sterilized urine in a 4:1 ratio. Liquid MOPS-glycerol was prepared by adding 10 × 3-(N-morpholino)propanesulfonic acid (MOPS) Buffer (Teknova) to water to a final 1× concentration, 1.32 mM K2HPO4, and 0.4% (vol/vol) glycerol and then filter-sterilizing. Unless otherwise noted, all media were supplemented with freshly prepared 20 µM FeSO4. OD600 analyses were performed on Mettler-Toledo UV5Bio UV/Visible spectrophotometer (Columbus, Ohio, USA). For antimicrobial studies, uropathogenic E. coli strain CFT073 (ATCC: BAA-2503) was provided by Kevin Schwartz from the lab of Rodney Welch. All manipulation of UPEC was conducted in a certified biosafety level 2 (BSL-2) laboratory while using BSL-2-associated safety procedures. Antimicrobial data were collected on a Biotek Epoch 2 microplate reader or a Biotek Synergy Neo 2 microplate reader. For metabolic stability studies, losartan potassium (PHR1602), used as an internal standard, was bought from Millipore Sigma (Burlington, MA). Methanol (A456-4) and acetonitrile (A955-4) were purchased from Fisher Chemical (Pittsburgh, PA). Water (9831-03) was purchased from JT Baker (Philipsburg, NJ). Dimethyl sulfoxide (DMSO)(154938-500mL) was purchased from Sigma Aldrich (St. Louis, MO). Mouse plasma (WT) was purchased from Innovative Research (Novi, MI). Mouse liver microsomes (M1000) were purchased from XenoTech LLC (Kansas City, KS).
All antimicrobial susceptibility assays were conducted as previously described using an aseptic technique with some modification ([7]). Briefly, 3–5 isolated colonies of CFT073 on LB agar or pooled urine agar were inoculated into 3 mL of liquid MOPS-glycerol medium or pooled urine, respectively, and grown overnight with shaking at 37°C. Saturated cultures were diluted 1:50 in fresh medium and grown to an OD600 of 0.4. These exponential phase cultures were then diluted 1:1,000 into fresh medium to yield the experimental inoculum, which was mixed 1:1 with medium containing 1 or N5-Pan analog at twice the desired final concentration in 96-well plates. The final concentration of bacteria in each well was approximately 10^5 CFU/mL in a final volume of 200 µL. The concentration ranges of compounds evaluated in MOPS-glycerol were: 1 (0–312.5 μM), 2 (0–100 μM), 3 (0–500 μM), 4–5 (0–2,000 μM), 6–7 (0–100 μM), and 8–12 (0-2,000 μM). Analogs 1, 6, and 7 were evaluated over a range of 0–4,000 μM in four batches of pooled human urine. The OD600 was monitored for 24 h (MOPS-glycerol) or 16 h (pooled urine) at 37°C with periodic shaking. […]

Series [2] can be described thus: Stability in mouse plasma. The class given is in vitro ADME. As to conditions: for stability in mouse plasma: n = 3. The method, then: Stability studies were conducted in mouse liver microsomes, mouse liver tissue homogenate, and CD1 mouse plasma as previously described with minor modifications ([54][–][56]). Briefly, for Phase I mouse liver microsome stability, reactions were carried out with 200 mM potassium phosphate buffer, pH 7.4, with or without an NADPH-regenerating system (1.3 mM NADPH, 3.3 mM glucose 6-phosphate, 3.3 mM MgCl2, 0.4 U/mL glucose-6-phosphate dehydrogenase, and 50 µM sodium citrate). Reactions, in triplicate, were initiated by the addition of liver microsomes to the incubation mixture (compound final concentration was 1 µM; 0.2 mg/mL microsomes) and incubated at 37°C for the desired incubation time. For liver stability, the tissue homogenate was prepared by washing tissues with diluted 10-fold 0.1 M potassium phosphate buffer and homogenized using a probe sonicator over ice. To evaluate the stability of the drugs over time, each of the crude homogenates was aliquoted to 1 mL and then spiked with a final assay concentration of 10 µM of each drug, followed by incubation in an orbital shaker at 37°C for 1 h (in triplicate). For plasma stability, 1 mL of plasma was spiked with 10 µM of each drug, followed by incubation in an orbital shaker at 37°C for 1 h (in triplicate). Samples from each metabolism study were quenched with 3× volume of acetonitrile containing internal standard (losartan: 0.5 µM) at the desired incubation times. […] Samples were vortex-mixed for 30 s and centrifuged at 10,000 × g for 10 min at 4°C. Compound disappearance over time was monitored using a Dionex ultra-high-performance liquid chromatography system consisting of an analytical pump and an autosampler coupled with Q Exactive Focus orbitrap mass spectrometer (Thermo Fisher Scientific Inc., Waltham MA). […] The mobile phase used was composed of 0.1% formic acid in water and 0.1% formic acid in acetonitrile with gradient elution. The total run time for each analyte was 5 min.
The mass spectrometer was operated with a HESI ion source in positive ionization mode where compounds were identified in the full scan mode (from m/z 75.00–1125.00) and controlled by the Xcalibur software 4.0.27.13 (Thermo Scientific). Data were acquired using Xcalibur software. Drugs were identified in the full-scan mode (from m/z 75.00 to 1125.00) by comparing t = 0 samples with t = 30 or 60 min samples, and structures were proposed based on the accurate mass information. The percentage of compound remaining for pantothenamides 1, 6, and 7 was determined from the analyte/internal standard (IS) area ratios obtained at t = 30 or 60 min relative to the mean ratios obtained at t = 0 min and calculated using equation 1:
% Remaining=(Peak area of Analyte/Preak area of ISat t=30 or 60 min/MeanPeak area of Analyte/Peak area of ISat t=0 min)×100

Setting [3] is: Escherichia coli, UPEC CFT073, all urine batches A-D, read-out: MIC across four batches of pooled urine.
The mark [4] stands for this setting: Escherichia coli, UPEC CFT073, urine batch A, read-out: MIC in pooled human urine, urine batch A.
Where [5] appears, read: Escherichia coli, UPEC CFT073, urine batch B, read-out: MIC in pooled human urine, urine batch B.
[6] abbreviates: Escherichia coli, UPEC CFT073, urine batch C, read-out: MIC in pooled human urine, urine batch C.
Setting [7] is: Escherichia coli, UPEC CFT073, urine batch D, read-out: MIC in pooled human urine, urine batch D.
Setting [8] is: UPEC CFT073, urine batch A, read-out: MIC in pooled human urine, urine batch A.
Setting [9] is: UPEC CFT073, urine batch B, read-out: MIC in pooled human urine, urine batch B.

`CCCCCNC(=O)CCNC(=O)[C@H](O)C(C)(C)CO` [compound 1, N-pentylpantothenamide, reference compound]: the MIC (as a rule, the lowest concentration that inhibits growth of the organism) in series [1] (setting [3]) was 250 to 1000 µM; in series [1] (setting [4]) it was 1000 µM; in series [1] (setting [5]) it was 250 µM; in series [1] (setting [6]) it was 1000 µM; in series [1] (setting [7]), 1000 µM; in series [1] (setting [8]) it was 1000 µM. Besides, the minimum inhibitory concentration (MIC) in series [1] (setting [9]) is recorded as 250 µM. In series [2] (CD1, mouse, plasma, 1 h, 10 µM compound, 37°C), the amount remaining (in general, the share of the starting amount still present when the sample was taken) at 1 h, 10 µM was below 1%. The “stability in mouse plasma” value in series [2] was “unstable”.
As to `CCCCCNC(=O)CNC(=O)[C@H](O)C(C)(C)CO` [compound 6, N5-α-pantothenamide], the minimum inhibitory concentration (MIC) in series [1] (setting [3]) was 250 to 1000 µM; in series [1] (setting [4]), 1000 µM; in series [1] (setting [5]), 250 µM; in series [1] (setting [6]), 500 µM; in series [1] (setting [7]), 500 µM; in series [1] (setting [8]), 1000 µM. Moreover, the MIC in series [1] (setting [9]) is 250 µM. In addition, the “fold higher MIC in urine than in MOPS-glycerol” value in series [1] (urine MICs vs MIC in MOPS-glycerol) was above 40 fold. In addition, the “% remaining in mouse plasma” value in series [2] (1 h, 10 µM compound, 37°C) is “no degradation”. Also, the “stability in mouse plasma” value in series [2] is on record as “good stability”.
